Data: patent publication US10414721B1, “Inhibitor of endocannabinoid cellular reuptake” (University of Bern, priority 2018, dated 2019)
Entries after “also recorded” stand apart in the source; their conditions may differ.

Legend:
BALB/c male mice = assay: Endocannabinoid and NAE levels 1 h after oral administration; assay type: in vivo, mouse; conditions: for 2-AG level in plasma: control 16.1±2.9
Procedure: Male C57BL6/J or male BALB/c mice were orally administered by gavage with 10, 25, 50 or 100 mg/kg of WOBE437 (100 μL; olive oil and ethanol 8:2) using a metal feeding needle (20G, Kent Scientific, USA). The mice were sacrificed by decapitation after gavage administration. Brain, blood, liver, kidney and spleen were collected for the LC-MS/MS analyses. All tissues were briefly washed with ice cold PBS and immediately snap-frozen and stored at −80° C. Whole brain samples were dissected between the hemispheres. Blood samples were immediately centrifuged to obtain plasma, which was stored at −80° C.
Samples extractions and LC-MS/MS measurements were performed as previously described (Chicca et al., 2017). Briefly, tissues were weighted and transferred in to extraction tubes containing three steel beads and 0.1 M formic acid. Tissues were homogenized and rapidly transferred to glass tubes containing 1.5 mL of ethyl acetate:hexane (9:1) 0.1% formic acid and internal standards (ISs). Samples were centrifuged and the organic phase was recovered. After evaporation, the extracts were reconstituted in 200 μL of ACN:ddH2O (8:2). 10 μL of the solution were injected in the LC-MS/MS system using the same LC and ionization protocols as described (Chicca et al., 2017).

[1] = tested on: 2-AG uptake in Neuro2a cells; assay: 2-AG uptake and hydrolysis in Neuro2a cells; assay type: cell-based, mouse
Procedure: (§1) All radioactivity-based AEA and 2-AG uptake and release assays performed in U937, and HMC-1 cells were carried out using two different assay formats as previously reported. AEA and 2-AG uptake assay in Neuro2a and primary mouse cortical neurons were performed with a different method disclosed in Chicca 2017.

CB1 receptors = assay: Functional CB1 receptors in brain after repeated treatment; assay type: in vivo, mouse; conditions: 7 days of daily treatment
Procedure: CB1 and CB2 receptor binding assays [^35S]GTPγS assays were performed as previously described. WOBE437 was profiled in more detail in an extended CNS adverse drug reaction screening panel (CEREP).

BALB/c mice [2] = assay: LPS-induced endotoxemia; assay type: in vivo, mouse; conditions: 5 and 10 mg/kg
Procedure: (§2) WOBE437 was initially assessed in a battery of four individual tests typically associated with CB1 receptor activation in mice (nociception, locomotion, body temperature and cataleptic behavior), collectively referred to as the “tetrad”. Dose-response experiments identified 10 mg/kg as the lowest dose to elicit a moderate but complete tetrad in BALB/c mice upon intraperitoneal (i.p.) administration (FIGS. 3A-D). […] To assess whether the WOBE437-induced effects were CB1 receptor-mediated, mice were pre-treated with the selective antagonist/inverse agonist rimonabant (SR1). […] These experiments provided a proof-of-concept for the mechanism of action of WOBE437 as a novel “indirect CB1 receptor agonist”. In subsequent studies, the effects of WOBE437 in pain, inflammatory and anxiety models were investigated. […] Both effects were reversed by SR1.
(§3) WOBE437 and RX-055 were tested in independent laboratories, in different mouse strains and in multiple (behavioral) models for cannabimimetic, analgesic, anti-inflammatory and anxiolytic-effects in wild-type and phenotypical CB1-KO mice as described in Chicca 2017.

major serine hydrolases [3] = assay: Activity-based protein profiling (ABPP) in mouse brain membranes; assay type: biochemical; conditions: membranes from mouse brain
Procedure: ABPP experiments were performed using membrane preparations obtained from mouse brains as described earlier.

COX-2 = COX-2 (Homo sapiens, UniProt P35354); assay: COX-2 activity assay; assay type: biochemical
Procedure: (§4) FAAH, ABHDs, MAGL and COX-2 activity assays were performed using cell homogenates, human recombinant enzymes and mouse, rat and pig brain homogenates as previously described.

BALB/c mice [4] = assay: Acetic acid-induced writhing test; assay type: in vivo, mouse; conditions: 5 and 10 mg/kg
Procedure: as §2, §3

mice = assay: Formalin test; assay type: in vivo, mouse; conditions: comparable to indomethacin (5 mg/kg)
Procedure: as §2, §3

AEA uptake in U937 cells = assay: AEA uptake inhibition in U937 cells; assay type: cell-based
Procedure: Based on the natural product (2E,4E)-N-isobutylamidedodeca-2,4-dienamide from the medicinal plant E. purpurea as a starting point, a library of 634 of analogs and derivatives with varying alkyl chain length was synthesized, and structure of the head group moiety analyzed. All new derivatives were tested for AEA uptake inhibition in U937 cells using a high-content screening assay.
as §1

major serine hydrolases [5] = assay: Serine hydrolase activity in vivo; conditions: mouse
[6] = tested on: AEA uptake in primary mouse cortical neurons; assay: AEA uptake in primary mouse cortical neurons; assay type: cell-based; conditions: Cortical neurone
Procedure: as §1

[7] = tested on: AEA uptake in HMC-1 human mast cells; assay: AEA uptake inhibition in FAAH-deficient HMC-1 cells; assay type: cell-based
Procedure: as §1

C57BL6/N mice = assay: Elevated plus maze (EPM); assay type: in vivo, mouse; conditions: 3 mg/kg
Procedure: as §2, §3

[8] = tested on: main EC degrading enzymes (FAAH, MAGL); assay: Stability towards endocannabinoid degrading enzymes; assay type: in vitro ADME
Procedure: as §4

COX-2, sequence (P35354 18-604): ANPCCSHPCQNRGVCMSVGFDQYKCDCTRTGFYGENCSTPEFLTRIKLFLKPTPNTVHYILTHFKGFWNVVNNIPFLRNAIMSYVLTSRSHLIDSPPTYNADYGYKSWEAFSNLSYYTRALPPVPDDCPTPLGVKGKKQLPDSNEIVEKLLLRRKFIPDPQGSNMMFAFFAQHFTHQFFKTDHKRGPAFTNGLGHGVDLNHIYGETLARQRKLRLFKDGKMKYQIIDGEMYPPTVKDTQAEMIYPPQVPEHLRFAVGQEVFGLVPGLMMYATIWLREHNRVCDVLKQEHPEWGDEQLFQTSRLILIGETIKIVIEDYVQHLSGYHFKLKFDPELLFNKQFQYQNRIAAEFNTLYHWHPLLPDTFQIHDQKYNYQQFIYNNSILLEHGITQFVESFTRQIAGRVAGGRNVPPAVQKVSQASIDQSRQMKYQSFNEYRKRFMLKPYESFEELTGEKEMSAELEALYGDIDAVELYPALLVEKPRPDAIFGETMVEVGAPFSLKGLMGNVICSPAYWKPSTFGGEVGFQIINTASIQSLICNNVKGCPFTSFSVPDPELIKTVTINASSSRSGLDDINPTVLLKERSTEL

Compound: CCCCCCC/C=C/C=C/C(=O)NCCc1ccc(OC)c(OC)c1 [WOBE437, (2E,4E)-N-[2-(3,4-Dimethoxyphenyl)ethyl]dodeca-2,4-dienamide]
- 2-AG level in plasma (BALB/c male mice; 25 mg/kg p.o.): 21.4 ± 4.5 pmol/mL
- reduction of AEA concentration in plasma (BALB/c male mice; 50 mg/kg p.o.): 23%
- 2-AG levels in somatosensory cortex (BALB/c male mice; 50 mg/kg p.o., 1 h): no changes
- AEA levels in somatosensory cortex (BALB/c male mice; 50 mg/kg p.o., 1 h): significant increase
- AEA concentration in plasma (BALB/c male mice; 50 mg/kg p.o., control 2.6±0.2): 2.2 ± 0.3 pmol/mL
- 2-AG concentration in total brain (BALB/c male mice; 50 mg/kg p.o., control 10.8±2.6): 13.9 ± 2.6 nmol/g
- 2-AG level in plasma (BALB/c male mice; 50 mg/kg p.o.): 22.6 ± 4.8 pmol/mL
- 2-AG level in plasma (BALB/c male mice; 100 mg/kg p.o.): 23.8 ± 5.7 pmol/mL
- increase of 2-AG levels in plasma (BALB/c male mice; 25, 50 and 100 mg/kg p.o.): 40%
- AEA and 2-AG levels in total brain (BALB/c male mice; p.o., 1 h): tendency to increase
- levels of N-acylethanolamines other than AEA (BALB/c male mice; somatosensory cortex, total brain or plasma): No changes
- reduction of overall 2-AG uptake ([1]; 5 μM, 2 and 5 min incubation): 40%
- effect on 2-AG uptake and hydrolysis ([1]; Neuro2a cells, time course): only inhibited 2-AG uptake but not hydrolysis
- number of functional CB1 receptors in the brain (CB1 receptors): did not affect
- effect in LPS-induced endotoxemia (BALB/c mice [2]): protective effects
- inhibition of major serine hydrolases (ABPP) (major serine hydrolases [3]): does not inhibit any of the major serine hydrolases
- inhibition of COX-2 activity (COX-2): did not inhibit
- abdominal stretches in the acetic writhing test (BALB/c mice [4]): reduced number of abdominal stretches
- inflammatory pain and paw thickness (mice): reduced inflammatory pain and paw thickness
- residual AEA and 2-AG reuptake upon treatment (AEA uptake in U937 cells): 20-30%
- selectivity for AEA uptake over FAAH / AEA hydrolysis (AEA uptake in U937 cells): 1000 fold
- IC50 (AEA uptake in U937 cells; Homo sapiens, U-937, U937 cells, 100 nM total AEA): 10 ± 8 nM
- Hill slope, AEA uptake (AEA uptake in U937 cells; U937 cells, multiphase AEA uptake assay): −0.715
- type of AEA uptake inhibition (Michaelis-Menten analysis) (AEA uptake in U937 cells; intact U937 cells): competitive
- reversibility of AEA uptake inhibition (AEA uptake in U937 cells; rapid dilution assay): reversible
- inhibition of major serine hydrolases in vivo (major serine hydrolases [5]): did not inhibit
- inhibition at 1 µM ([6]; 2-7 min of incubation): 50%
- inhibition at 1 µM ([6]; 10-20 min of incubation): 20 to 35%
- IC50 ([7]; HMC1, FAAH-deficient HMC-1 human mast cells, estimated): ~137 nM
- Hill slope, AEA uptake ([7]; HMC-1 cells): −0.934
- anxiolytic effect after SR1 (C57BL6/N mice): completely blocked by SR1
- number of entries and time spent in open arms (C57BL6/N mice; vs vehicle): significantly increased
- stability in the presence of the main EC degrading enzymes [8]: completely stable; also recorded: not affected by the hydrolytic activity of FAAH and MAGL
- melting point: 112 °C
